Source: US20240374585A1, “EPITHELIAL SODIUM CHANNEL (ENAC) INHIBITOR CONJUGATES AND METHODS FOR USE THEREOF” (Lung Therapeutics, Inc., priority 2021, published 2024)
Like-named read-outs stand apart in the source and are kept apart here.

Target: T1, ENaC (Homo sapiens, UniProt P37088+P51168+P51170)
T1 construct: Primary NHBE cells were isolated from bronchi of normal healthy patients; endogenous in cells; host or cells: primary normal human bronchial epithelial (NHBE) cells, differentiated at air-liquid interface
T1 sequence (P37088 1-669): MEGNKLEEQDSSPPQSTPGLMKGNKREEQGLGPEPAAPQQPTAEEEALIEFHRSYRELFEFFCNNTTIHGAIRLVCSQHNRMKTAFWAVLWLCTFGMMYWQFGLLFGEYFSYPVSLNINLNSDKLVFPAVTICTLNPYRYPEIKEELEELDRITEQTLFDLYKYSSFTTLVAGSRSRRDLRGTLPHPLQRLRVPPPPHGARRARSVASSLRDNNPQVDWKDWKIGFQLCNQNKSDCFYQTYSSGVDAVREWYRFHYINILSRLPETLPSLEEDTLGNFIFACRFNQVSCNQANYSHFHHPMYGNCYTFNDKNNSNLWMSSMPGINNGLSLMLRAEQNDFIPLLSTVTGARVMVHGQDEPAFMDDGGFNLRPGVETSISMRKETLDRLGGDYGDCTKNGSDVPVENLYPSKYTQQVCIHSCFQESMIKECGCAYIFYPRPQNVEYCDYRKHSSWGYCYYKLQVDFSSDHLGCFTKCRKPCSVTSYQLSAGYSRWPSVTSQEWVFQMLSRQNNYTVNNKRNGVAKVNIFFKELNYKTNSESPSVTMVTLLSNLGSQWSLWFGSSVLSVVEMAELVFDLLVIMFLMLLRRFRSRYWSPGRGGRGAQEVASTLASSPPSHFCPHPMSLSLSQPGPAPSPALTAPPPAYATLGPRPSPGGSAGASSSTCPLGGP
T1 sequence (P51168 1-640): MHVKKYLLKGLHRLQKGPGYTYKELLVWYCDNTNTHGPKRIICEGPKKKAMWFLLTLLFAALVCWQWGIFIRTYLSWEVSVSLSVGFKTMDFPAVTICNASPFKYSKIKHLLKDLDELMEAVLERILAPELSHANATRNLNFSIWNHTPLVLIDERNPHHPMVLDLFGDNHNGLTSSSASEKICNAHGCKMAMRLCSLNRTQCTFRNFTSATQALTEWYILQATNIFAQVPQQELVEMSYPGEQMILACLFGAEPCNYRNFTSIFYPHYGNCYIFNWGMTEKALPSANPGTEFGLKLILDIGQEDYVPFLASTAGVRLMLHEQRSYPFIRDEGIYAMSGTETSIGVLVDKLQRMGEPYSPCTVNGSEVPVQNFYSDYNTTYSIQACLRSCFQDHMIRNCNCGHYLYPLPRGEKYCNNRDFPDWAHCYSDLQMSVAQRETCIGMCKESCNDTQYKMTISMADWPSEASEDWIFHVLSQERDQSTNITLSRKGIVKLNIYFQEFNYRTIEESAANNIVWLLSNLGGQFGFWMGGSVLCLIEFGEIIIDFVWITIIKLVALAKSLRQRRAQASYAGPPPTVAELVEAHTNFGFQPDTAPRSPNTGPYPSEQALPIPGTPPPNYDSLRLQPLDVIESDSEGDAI
T1 sequence (P51170 1-649): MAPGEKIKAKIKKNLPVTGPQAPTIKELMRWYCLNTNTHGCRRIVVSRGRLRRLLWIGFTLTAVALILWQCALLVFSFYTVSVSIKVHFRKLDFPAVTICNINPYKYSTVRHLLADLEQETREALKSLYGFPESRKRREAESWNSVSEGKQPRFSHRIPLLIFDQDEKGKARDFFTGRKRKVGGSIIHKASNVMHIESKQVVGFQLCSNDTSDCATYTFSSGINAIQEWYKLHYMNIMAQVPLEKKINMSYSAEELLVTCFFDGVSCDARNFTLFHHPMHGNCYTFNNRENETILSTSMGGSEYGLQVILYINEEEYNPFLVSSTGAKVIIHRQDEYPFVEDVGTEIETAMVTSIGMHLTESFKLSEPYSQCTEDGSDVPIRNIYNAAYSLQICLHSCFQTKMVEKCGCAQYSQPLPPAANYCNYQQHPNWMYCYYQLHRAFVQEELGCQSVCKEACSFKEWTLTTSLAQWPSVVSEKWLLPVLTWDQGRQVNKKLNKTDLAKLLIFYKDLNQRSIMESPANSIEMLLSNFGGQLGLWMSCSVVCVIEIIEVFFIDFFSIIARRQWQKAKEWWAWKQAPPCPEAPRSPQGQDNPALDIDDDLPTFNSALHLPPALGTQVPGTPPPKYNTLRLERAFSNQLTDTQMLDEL
Test: ENaC inhibition in NHBE cell monolayers, Ussing epithelial voltage clamp (short circuit current)
Assay type: cell-based
Procedure: The objective of this study was to measure the ability of the illustrative conjugates to modulate ion transport function of ENAC in normal human bronchial epithelial (NHBE) cell monolayers. Sodium transport function of ENAC expressed in NHBE monolayers was evaluated using an Ussing epithelial voltage clamp apparatus. See, Hirsh et al., J. Pharmacol. Exp. Ther. 2008; 325:77-88, hereby incorporated by reference in its entirety.
Primary NHBE cells were isolated from bronchi of normal healthy patients, expanded in Lonza media (BEGM™ BulletKit™), and plated on Snapwell™ filters to form an epithelium. Cells on Snapwell™ inserts were grown for at least 21 days in Vertex Differentiation media and exposed to an air-liquid interface to promote differentiation. At least one day before the assay, mucous overlaying the apical surface was removed from the inserts by incubating the apical surface for about 30 minutes with ≥200 μL of differentiation media followed by aspiration of the mucous film and media.
The NHBE cell monolayers grown on Snapwell™ filter inserts were transferred to Physiologic Instruments Ussing recording chambers (Physiologic Instruments, Inc., San Diego, CA) and superfused with HB-PS. One or more 6-channel or 8-channel Physiologic Instruments VCC MC6 or VCC MC8 epithelial voltage clamps were used in combination to record short circuit current (ISC) from up to 24 inserts simultaneously. Air was used to operate the bubble lifts to rapidly circulate solutions in each Ussing chamber half and to aerate the monolayers.
Inserts were voltage clamped at 0 m V to record the ISC. Bumetanide (20 μM) was added to the basolateral side of all inserts. Test conjugates prepared as DMSO (Sigma-Aldrich) stocks were added cumulatively and sequentially to the apical Ussing chamber halves with at least 3 minutes between each addition.
Time and volume matched additions of DMSO to the basolateral side of the test conjugate treated inserts and both sides of the vehicle treated inserts was made to maintain osmotic balance across the epithelia. Transepithelial resistance was monitored with small voltage steps. The assay was performed at 35±2° C.
ENaC current at each test conjugate concentration was calculated as the peak current change produced by each test conjugate treated insert minus the mean current change produced by the corresponding DMSO additions to time-matched vehicle controls inserts. Cumulative difference data was fit to a Hill equation of the form: […]
Where IEnaC is the ISC peak difference current measured at each test conjugate concentration [Test].

Compound	IC50	IC50 (NHBE cell monolayers, Ussing chamber, apical addition, 35±2° C., read-out: IC50 for the ENaC inhibition)
CC(=O)N[C@@H](Cc1cn(CCCCNC(N)=NC(=O)c2nc(Cl)c(N)nc2N)nn1)C(=O)NCCCCCC(=O)N[C@@H](C)C(=O)N[C@@H](CO)C(=O)N[C@@H](Cc1c[nH]cn1)C(=O)N[C@@H](CC(C)C)C(=O)N[C@@H](CCCNC(=N)N)C(=O)N[C@@H](CCCCN)C(=O)N[C@@H](CC(C)C)C(=O)N[C@@H](CCCNC(=N)N)C(=O)N[C@@H](CCCCN)C(=O)N[C@@H](CCCNC(=N)N)C(=O)N[C@@H](CC(C)C)C(=O)N[C@@H](CC(C)C)C(N)=O [Conjugate 8]	60 nM	
CC(=O)N[C@@H](Cc1cn(CCCCNC(N)=NC(=O)c2nc(Cl)c(N)nc2N)nn1)C(=O)NCCCCCC(=O)N[C@H](C(=O)N[C@@H](CO)C(=O)N[C@@H](CCCCN)C(=O)N[C@@H](CCCNC(=N)N)C(=O)N[C@@H](CCCNC(=N)N)C(N)=O)C(C)C [Conjugate 9, Ac-(AmilCC2-Pgy)-Ahx-VSKRR-NH2]		100 nM
